# What was measured:
# IgG1 = test: Serum IgG1 in anti-IgD stimulated mice (two site sandwich ELISA, Assay B); format: in vivo, mouse (Balb/c female); details: 20 μg days 3 and 4
# Procedure: (§1) Sera from mice treated with compounds in accordance with the method of the invention are analyzed for levels of IgG1, IgG2a, IgG3, and IgM.
# Mouse IgG1 measurement by a two site sandwich ELISA is as follows. About 5 μg of rabbit anti mouse IgG (Organon-Teknika-Cappel, Malvern, Pa.) is attached to the wells of a NuncImmulon 96 well plate and IgG1 levels are determined in substantial accordance with Assay A except with the following changes. The IgG1 standard is purchased from Southern BioTech, Birmingham, Ala., and stored at 10 μg/ml in 2% NBS in PBS at 4° C. The standard curve is prepared by diluting the mouse IgG1 standard in 0.05% Tween-80 in PBS, and is linear between 3.9 and 250 ng/ml. Serum containing IgG1 is diluted 1/10,000 to 1/1,000,000 in 0.05% Tween 80-PBS, to place the measurement within the standard curve. Standard IgG1 (or diluted serum) is incubated at about 37° C. for 1 hour and the plates are washed with 0.05% Tween 80-PBS as described in Assay A. About a 1/3,000 dilution of Goat anti mouse IgG1 (Southern Biotech, Birmingham, Ala.) conjugated to alkaline phosphatase in 0.05% Tween 80-PBS is added to each well and incubated at about 37° C. for 60 minutes. The plate is washed and colorimetric substrate, prepared as described by the manufacturer (Alkaline Phosphatase Substrate System, KPL, Gaithersburg, Md.), is added and optical density and data analysis is performed in the same manner as Assay A.
# (§2) Sera from the mice described in Example 13 are analyzed for the levels of IgG1, IgG2a, and IgG3 by Assays B, C, and D, respectively.
# (§3) Two groups of 4 Balb/c female mice per group are injected with both 100 μg FF1-4D5 antibody and 100 μg H∂A1 antibody. One of these groups is a stimulated control designated Group B. On day 3 and 4, the other group is injected with 40 μg (±) methyl 11α, 16-dihydroxy-1-methyl-9-oxoprosta-4Z,13E-dien-1-oate. Another group is injected with only PBS as an unstimulated control (Group A). On day -1 and 8, 50-100 μl of serum is recovered and analyzed for IgE, IgG1 and IgG2a by Assays A, B, and C, respectively.
# (§4) 3 groups of 4 Balb/c female mice per group are injected with both 100 μg FF1-4D5 antibody and 100 μg H∂A1 antibody on day 0. Group A is given no further treatment. On day 3 and 4, one group of mice is injected with 20 μg (±) methyl 2-[2-[3R-3α-hydroxy-2β-(4-hydroxy-4-methyl-1E-octenyl-5-oxo-1α-cyclopentyl]-methyl]cyclopropanebutanoate (Group B) and another group with 20 μg (±) methyl 2-[2-[3R-3α-hydroxy-2β-(4-hydroxy-4-methyl-1E-octenyl)-5-oxo-1α-cyclopentyl]ethyl]cyclopropanepropanoate (Group C) as in Example 13. On day -1 and 8, 50-100 μl of serum is recovered and analyzed for IgE, IgG1, IgG2a and IgG3 by Assays A, B, C and D, respectively. The selectivity of inhibition of IgE is shown in Table 12.
# (§5) Three groups of 5 Balb/c female mice per group are injected with both 100 μg FF1-4D5 antibody and 100 μg H∂A1 antibody on day 0. Group A is a control with no further treatment. On day 3 and 4, the mice are injected with 20 μg (±) methyl 11α,16-dihydroxy-4,4,16-trimethyl-9-oxoprosta-13E-en-1-oate (Group B) or 20 μg (±) methyl 11α,16-dihydroxy-16-methyl-9-oxoprosta-3,5Z,13E-trien-1-oate (Group C) as in Example 13. On day -1 and 8, […] of serum is recovered and analyzed for IgE, IgG1, IgG2a, IgG3 and IgM by Assays A, B, C, D and E, respectively.
# IgG2a = test: Serum IgG2a in anti-IgD stimulated mice (two site sandwich ELISA, Assay C); format: in vivo, mouse (Balb/c female); details: 20 μg days 3 and 4; for IgG2a ±: Table 12, day 8 (control 849)
# Procedure: as §1
# Measurement of mouse IgG2a by a two site sandwich ELISA is performed in substantial accordance with the teaching of Assay B except with the following changes. NuncImmulon II plates are used in this assay. The IgG2a standard is purchased from Southern Biotech. The standard curve is linear between 4-250 ng/ml. Serum containing IgG2a is diluted 1/6400 to 1/1,000,000. About a 1/6,000 dilution of goat anti mouse IgG2a (Southern Biotech) conjugated to alkaline phosphatase is used.
# as §2, §3, §4, §5
# IgG3 = test: Serum IgG3 in anti-IgD stimulated mice (two site sandwich ELISA, Assay D); format: in vivo, mouse (Balb/c female); details: 20 μg days 3 and 4
# IgE = test: ED50 for inhibition of IgE calculated from the examples; format: in vivo, mouse; details: dose to achieve 50% inhibition of IgE
# Procedure: From the data in the above examples, the effective dose of each prostaglandin to achieve 50% inhibition of IgE (ED50) was calculated.
# [1] = Diarrheal effects in rats; details: rat, in vivo, po
# Procedure: Briefly, adult Charles River male rats weighing 210-230 g were individually housed and fasted with water available ad libitum for 24 hours prior to the test. The animals (N=6-12) received logarithmically graded prostaglandin doses orally. Immediately after administration, the animals were returned to their cages, and diarrhea, if any, was assessed on an all or none basis for 8 hours after drug treatment. The ED50 and relative potency values were calculated by the logistic method of Berkson.
# [2] = Table 12, day 8 (control 10525)
Compound,inhibition of IgG1 (IgG1; Example 25),"IgG1 ± SD (IgG1; Table 14, day 8 (control 21703))",inhibition of IgG2a (IgG2a; Example 25),"IgG2a ± SD (IgG2a; Table 14, day 8 (control 1246))",inhibition of IgG3 (IgG3; Example 25),"IgG3 ± SD (IgG3; Table 14, day 8 (control 1538))",ED50 IgE Inhibition (IgE),TD50 at 8 h [1],inhibition of IgG1 (IgG1; Example 23),IgG1 ± SD (IgG1; [2]),inhibition of IgG2a (IgG2a; Example 23),IgG2a ± (IgG2a),inhibition of IgG3 (IgG3; Example 23),"IgG3 ± SD (IgG3; Table 12, day 8 (control 584))"
"CCCCC(C)(O)C/C=C/[C@H]1[C@H](O)CC(=O)[C@@H]1CCCC(C)(C)CCC(=O)OC (mixture of isomers) [(±) methyl 11α,16-dihydroxy-4,4,16-trimethyl-9-oxoprost-13E-en-1-oate]","not IgG1, IgG2a, IgG3 and IgM",22555 ± 5821 µg/mL,"not IgG1, IgG2a, IgG3 and IgM",1019 ± 278 µg/mL,"not IgG1, IgG2a, IgG3 and IgM",2103 ± 616 µg/mL,1.5 μg/mouse/TID,0.185 mg/kg,,,,,,
CCCCC(C)(O)C/C=C/[C@H]1[C@H](O)CC(=O)[C@@H]1CCC1CC1CCC(=O)OC (relative stereo) [(±) methyl 2-[2-[3R-3α-hydroxy-2β-(4-hydroxy-4-methyl-1E-octenyl)-5-oxo-1α-cyclopentyl]ethyl]cyclopropanepropanoate],,,,,,,1.0 μg/mouse/TID,,"not IgG1, IgG2a or IgG3",22573 ± 5690 µg/mL,"not IgG1, IgG2a or IgG3",840 ± 484 µg/mL,"not IgG1, IgG2a or IgG3",901 ± 213 µg/mL
CCCCC(C)(O)C/C=C/[C@H]1[C@H](O)CC(=O)[C@@H]1CC1CC1CCCC(=O)OC (relative stereo) [(±) methyl 2-[2-[3R-3α-hydroxy-2β-(4-hydroxy-4-methyl-1E-octenyl)-5-oxo-1α-cyclopentyl]methyl]cyclopropanebutanoate],,,,,,,9.0 μg/mouse/TID,,"not IgG1, IgG2a or IgG3",14470 ± 2997 µg/mL,"not IgG1, IgG2a or IgG3",834 ± 235 µg/mL,"not IgG1, IgG2a or IgG3",520 ± 39 µg/mL
